Read-outs that look alike come from different tables or passages of the source.
What was measured:
Type in all cases: in vivo
[1] = test system: Yellow Nutsedge; assay: pre-emergence herbicide test; conditions: Cyperus, read-out: % plant inhibition; for inhibition at 1000.92 g/ha: 0.893 lb/A; for inhibition at 5043.82 g/ha: 4.5 lb/A; for inhibition at 200.072 g/ha: 0.1785 lb/A
In short: (§1)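 Pans of compacted topsoil received seeds and then a cover layer treated with test compound from an acetone or water carrier. Plants grew under greenhouse conditions with moisture supplied from below. Observations of % inhibition followed roughly 14 days after treatment.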

[2] = test system: Barnyardgrass; assay: pre-emergence herbicide test; conditions: Echinochloa crus-galli, pre-emergence, read-out: % plant inhibition; for inhibition at 1000.92 g/ha: 0.893 lb/A; for inhibition at 5043.82 g/ha: 4.5 lb/A; for inhibition at 200.072 g/ha: 0.1785 lb/A
In short: as §1

[3] = test system: Velvetleaf; assay: pre-emergence herbicide test; conditions: Abutilon theophrasti, pre-emergence, read-out: % plant inhibition; for inhibition at 1000.92 g/ha: 0.893 lb/A; for inhibition at 5043.82 g/ha: 4.5 lb/A; for inhibition at 200.072 g/ha: 0.1785 lb/A
In short: as §1

[4] = test system: Morning Glory; assay: pre-emergence herbicide test; conditions: Ipomoea, pre-emergence, read-out: % plant inhibition; for inhibition at 1000.92 g/ha: 0.893 lb/A; for inhibition at 5043.82 g/ha: 4.5 lb/A; for inhibition at 200.072 g/ha: 0.1785 lb/A
In short: as §1

[5] = test system: Rice; assay: pre-emergence herbicide test; conditions: Oryza sativa, read-out: % plant inhibition; for inhibition at 1000.92 g/ha: 0.893 lb/A; for inhibition at 5043.82 g/ha: 4.5 lb/A; for inhibition at 200.072 g/ha: 0.1785 lb/A
In short: as §1

[6] = test system: Yellow Foxtail; assay: pre-emergence herbicide test; conditions: Setaria, read-out: % plant inhibition; for inhibition at 1000.92 g/ha: 0.893 lb/A; for inhibition at 5043.82 g/ha: 4.5 lb/A; for inhibition at 200.072 g/ha: 0.1785 lb/A
In short: as §1

[7] = test system: Soybean; assay: pre-emergence herbicide test; conditions: Glycine max, pre-emergence, read-out: % plant inhibition; for inhibition at 1000.92 g/ha: 0.893 lb/A; for inhibition at 5043.82 g/ha: 4.5 lb/A; for inhibition at 200.072 g/ha: 0.1785 lb/A
In short: as §1

[8] = test system: Cocklebur; assay: pre-emergence herbicide test; conditions: Xanthium strumarium, pre-emergence, read-out: % plant inhibition; for inhibition at 1000.92 g/ha: 0.893 lb/A; for inhibition at 5043.82 g/ha: 4.5 lb/A; for inhibition at 200.072 g/ha: 0.1785 lb/A
In short: as §1

[9] = test system: Corn; assay: pre-emergence herbicide test; conditions: Zea mays, pre-emergence, read-out: % plant inhibition; for inhibition at 1000.92 g/ha: 0.893 lb/A; for inhibition at 5043.82 g/ha: 4.5 lb/A; for inhibition at 200.072 g/ha: 0.1785 lb/A
In short: as §1

[10] = test system: Wheat; assay: post-emergence herbicide test; conditions: Triticum aestivum, post-emergence, read-out: % plant inhibition; for inhibition at 200.072 g/ha: 0.1785 lb/A; for inhibition at 1000.92 g/ha: 0.893 lb/A; for inhibition at 5043.82 g/ha: 4.5 lb/A
In short: (§2)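 Soil pans seeded, covered and leveled; grown in greenhouse 2–3 weeks. Sprayed individually (atomizer, 10 psig, 200 gallons/acre). Percent inhibition recorded.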

[11] = test system: Blackgrass; assay: post-emergence herbicide test; conditions: Alopecurus myosuroides, post-emergence, read-out: % plant inhibition; for inhibition at 200.072 g/ha: 0.1785 lb/A; for inhibition at 1000.92 g/ha: 0.893 lb/A; for inhibition at 5043.82 g/ha: 4.5 lb/A; for inhibition at 40.0143 g/ha: 0.0357 lb/A
In short: as §2

[12] = test system: Barnyardgrass; assay: post-emergence herbicide test; conditions: Echinochloa crus-galli, post-emergence, read-out: % plant inhibition; for inhibition at 200.072 g/ha: 0.1785 lb/A; for inhibition at 1000.92 g/ha: 0.893 lb/A; for inhibition at 5043.82 g/ha: 4.5 lb/A
In short: as §2

[13] = test system: Soybean; assay: post-emergence herbicide test; conditions: Glycine max, post-emergence, read-out: % plant inhibition; for inhibition at 200.072 g/ha: 0.1785 lb/A; for inhibition at 1000.92 g/ha: 0.893 lb/A; for inhibition at 5043.82 g/ha: 4.5 lb/A
In short: as §2

[14] = test system: Cocklebur; assay: post-emergence herbicide test; conditions: Xanthium strumarium, post-emergence, read-out: % plant inhibition; for inhibition at 200.072 g/ha: 0.1785 lb/A; for inhibition at 1000.92 g/ha: 0.893 lb/A; for inhibition at 5043.82 g/ha: 4.5 lb/A
In short: as §2

[15] = test system: Bedstraw Catchweed; assay: post-emergence herbicide test; conditions: Galium aparine, post-emergence, read-out: % plant inhibition; for inhibition at 200.072 g/ha: 0.1785 lb/A; for inhibition at 1000.92 g/ha: 0.893 lb/A; for inhibition at 5043.82 g/ha: 4.5 lb/A
In short: as §2

## Cc1c(-c2cc(F)ccc2F)nn(C)c1C(F)(F)F [Compound 1, 3-(2,5-Difluorophenyl)-1,4-dimethyl-5-(trifluoromethyl)-1H-pyrazole]
[1]
  inhibition at 1000.92 g/ha: 0%
  inhibition at 5043.82 g/ha: 45%
[2]
  inhibition at 1000.92 g/ha: 0%
  inhibition at 5043.82 g/ha: 50%
[3]
  inhibition at 1000.92 g/ha: 0%
  inhibition at 5043.82 g/ha: 65%
[4]
  inhibition at 1000.92 g/ha: 0%
  inhibition at 5043.82 g/ha: 35%
[5]
  inhibition at 1000.92 g/ha: 25%
  inhibition at 5043.82 g/ha: 0%
[6]
  inhibition at 1000.92 g/ha: 0%
  inhibition at 5043.82 g/ha: 35%
[7]
  inhibition at 1000.92 g/ha: 0%
  inhibition at 5043.82 g/ha: 0%
[8]
  inhibition at 1000.92 g/ha: 0%
  inhibition at 5043.82 g/ha: 0%
[9]
  inhibition at 1000.92 g/ha: 0%
  inhibition at 5043.82 g/ha: 10%
[10]
  inhibition at 200.072 g/ha: 0%
  inhibition at 1000.92 g/ha: 0%
  inhibition at 5043.82 g/ha: 10%
[11]; Table 4a
  inhibition at 200.072 g/ha: 0%
  inhibition at 1000.92 g/ha: 0%
  inhibition at 5043.82 g/ha: 0%
[11]; Table 5a
  inhibition at 200.072 g/ha: 0%
  inhibition at 1000.92 g/ha: 0%
  inhibition at 5043.82 g/ha: 35%
[12]
  inhibition at 200.072 g/ha: 0%
  inhibition at 1000.92 g/ha: 0%
  inhibition at 5043.82 g/ha: 0%
[13]
  inhibition at 200.072 g/ha: 0%
  inhibition at 1000.92 g/ha: 0%
  inhibition at 5043.82 g/ha: 0%
[14]
  inhibition at 200.072 g/ha: 0%
  inhibition at 1000.92 g/ha: 0%
  inhibition at 5043.82 g/ha: 0%
[15]
  inhibition at 200.072 g/ha: 0%
  inhibition at 1000.92 g/ha: 0%
  inhibition at 5043.82 g/ha: 30%

## Cn1nc(-c2cc(F)ccc2F)c(C=O)c1C(F)(F)F [Compound 34]
[1]
  inhibition at 200.072 g/ha: 0%
  inhibition at 1000.92 g/ha: 0%
  inhibition at 5043.82 g/ha: 20%
[2]
  inhibition at 200.072 g/ha: 0%
  inhibition at 1000.92 g/ha: 0%
  inhibition at 5043.82 g/ha: 0%
[3]
  inhibition at 200.072 g/ha: 0%
  inhibition at 1000.92 g/ha: 15%
  inhibition at 5043.82 g/ha: 75%
[4]
  inhibition at 200.072 g/ha: 0%
  inhibition at 1000.92 g/ha: 0%
  inhibition at 5043.82 g/ha: 0%
[5]
  inhibition at 200.072 g/ha: 0%
  inhibition at 1000.92 g/ha: 0%
  inhibition at 5043.82 g/ha: 0%
[6]
  inhibition at 200.072 g/ha: 0%
  inhibition at 1000.92 g/ha: 0%
  inhibition at 5043.82 g/ha: 20%
[7]
  inhibition at 200.072 g/ha: 0%
  inhibition at 1000.92 g/ha: 0%
  inhibition at 5043.82 g/ha: 0%
[8]
  inhibition at 200.072 g/ha: 0%
  inhibition at 1000.92 g/ha: 0%
  inhibition at 5043.82 g/ha: 0%
[9]
  inhibition at 200.072 g/ha: 0%
  inhibition at 1000.92 g/ha: 0%
  inhibition at 5043.82 g/ha: 0%
[10]
  inhibition at 200.072 g/ha: 0%
  inhibition at 1000.92 g/ha: 0%
  inhibition at 5043.82 g/ha: 10%
[11]; Table 4a
  inhibition at 200.072 g/ha: 0%
  inhibition at 1000.92 g/ha: 0%
  inhibition at 5043.82 g/ha: 0%
[11]; Table 5a
  inhibition at 200.072 g/ha: 0%
  inhibition at 1000.92 g/ha: 0%
  inhibition at 5043.82 g/ha: 30%
[12]
  inhibition at 200.072 g/ha: 0%
  inhibition at 1000.92 g/ha: 0%
  inhibition at 5043.82 g/ha: 10%
[13]
  inhibition at 200.072 g/ha: 0%
  inhibition at 1000.92 g/ha: 10%
  inhibition at 5043.82 g/ha: 15%
[14]
  inhibition at 200.072 g/ha: 0%
  inhibition at 1000.92 g/ha: 0%
  inhibition at 5043.82 g/ha: 25%
[15]
  inhibition at 200.072 g/ha: 0%
  inhibition at 1000.92 g/ha: 0%
  inhibition at 5043.82 g/ha: 80%

## Cc1c(-c2cc(O)c(Cl)cc2F)nn(C)c1C(F)(F)F [Compound 40]
[1]; 0.0357 lb/A
  inhibition at 40.0143 g/ha: 0%
[1]
  inhibition at 200.072 g/ha: 0%
  inhibition at 1000.92 g/ha: 70%
  inhibition at 5043.82 g/ha: 0%
[2]; 0.0357 lb/A
  inhibition at 40.0143 g/ha: 0%
[2]
  inhibition at 200.072 g/ha: 0%
  inhibition at 1000.92 g/ha: 35%
  inhibition at 5043.82 g/ha: 100%
[3]; 0.0357 lb/A
  inhibition at 40.0143 g/ha: 0%
[3]
  inhibition at 200.072 g/ha: 0%
  inhibition at 1000.92 g/ha: 60%
  inhibition at 5043.82 g/ha: 100%
[4]; 0.0357 lb/A
  inhibition at 40.0143 g/ha: 0%
[4]
  inhibition at 200.072 g/ha: 0%
  inhibition at 1000.92 g/ha: 50%
  inhibition at 5043.82 g/ha: 100%
[5]; 0.0357 lb/A
  inhibition at 40.0143 g/ha: 0%
[5]
  inhibition at 200.072 g/ha: 0%
  inhibition at 1000.92 g/ha: 0%
  inhibition at 5043.82 g/ha: 65%
[6]; 0.0357 lb/A
  inhibition at 40.0143 g/ha: 0%
[6]
  inhibition at 200.072 g/ha: 0%
  inhibition at 1000.92 g/ha: 80%
  inhibition at 5043.82 g/ha: 100%
[7]; 0.0357 lb/A
  inhibition at 40.0143 g/ha: 0%
[7]
  inhibition at 200.072 g/ha: 0%
  inhibition at 1000.92 g/ha: 20%
  inhibition at 5043.82 g/ha: 20%
[8]; 0.0357 lb/A
  inhibition at 40.0143 g/ha: 0%
[8]
  inhibition at 200.072 g/ha: 0%
  inhibition at 1000.92 g/ha: 45%
  inhibition at 5043.82 g/ha: 100%
[9]; 0.0357 lb/A
  inhibition at 40.0143 g/ha: 0%
[9]
  inhibition at 200.072 g/ha: 0%
  inhibition at 1000.92 g/ha: 5%
  inhibition at 5043.82 g/ha: 85%
[10]; 0.0357 lb/A
  inhibition at 40.0143 g/ha: 0%
[10]
  inhibition at 200.072 g/ha: 15%
  inhibition at 1000.92 g/ha: 20%
  inhibition at 5043.82 g/ha: 25%
[11]; Table 4a
  inhibition at 40.0143 g/ha: 0%
  inhibition at 200.072 g/ha: 0%
  inhibition at 1000.92 g/ha: 50%
  inhibition at 5043.82 g/ha: 30%
[11]; Table 5a
  inhibition at 40.0143 g/ha: 0%
  inhibition at 200.072 g/ha: 35%
  inhibition at 1000.92 g/ha: 65%
  inhibition at 5043.82 g/ha: 100%
[12]; 0.0357 lb/A
  inhibition at 40.0143 g/ha: 0%
[12]
  inhibition at 200.072 g/ha: 0%
  inhibition at 1000.92 g/ha: 65%
  inhibition at 5043.82 g/ha: 85%
[13]; 0.0357 lb/A
  inhibition at 40.0143 g/ha: 25%
[13]
  inhibition at 200.072 g/ha: 30%
  inhibition at 1000.92 g/ha: 70%
  inhibition at 5043.82 g/ha: 80%
[14]; 0.0357 lb/A
  inhibition at 40.0143 g/ha: 80%
[14]
  inhibition at 200.072 g/ha: 65%
  inhibition at 1000.92 g/ha: 70%
  inhibition at 5043.82 g/ha: 100%
[15]; 0.0357 lb/A
  inhibition at 40.0143 g/ha: 20%
[15]
  inhibition at 200.072 g/ha: 60%
  inhibition at 1000.92 g/ha: 98%
  inhibition at 5043.82 g/ha: 100%

From patent publication US5672715A, “Herbicidal substituted 3-aryl-pyrazoles” (Monsanto Company, priority 1995, dated 1997)
